The target in one assay is human recombinant TAK1-TAB1 Kinase (TAK1 (1-303) and TAB1 (437-end)) (Homo sapiens (Human), UniProt O43318). Kind of assay: TAK1 biochemical ADP-Glo kinase assay. Particulars: 10 μM ATP, MBP substrate; read-out: TAK1 Mean IC50 (nM) @ 10 μM ATP. As to the method:
The usefulness of the example compounds of the invention as TAK1 inhibitors was evaluated in a biochemical ADP-Glo kinase assay. Assay kits from Promega Corporation V4089 were used according to manufacturer's instructions and adapted as outlined here. ADP-Glo Kinase Assay kit contains ADP-Glo Reagent, Kinase Detection Reagent, kinase detection buffer, ATP, and ADP. The Kinase Enzyme Systems include human recombinant TAK1-TAB1 Kinase (TAK1 (1-303) and TAB1 (437-end)), Native Swine Myelin Basic Protein (MBP) substrate, 5×kinase reaction buffer, and DTT.
Test compounds were prepared in 1:5 serial dilutions at 8 concentrations in DMSO from 10 mM stock solutions. An additional 20-fold dilution in 1× kinase reaction buffer (see below) was performed, yielding a final dilution series in kinase buffer with 5% DMSO (final concentration in assay from 20 μM to 0.26 nM, 1% DMSO). As controls, Takinib was prepared as positive control (3 μM final in assay), and DMSO without inhibitor served as negative control, at a final assay concentration of DMSO of 1%.
One μl of compound solution in 5% DMSO was added to each well in a 384 well microtiter plate (OptiPlate #6007290). Two μl TAK1-TAB1 (7.5 ng/μl) in lxkinase reaction buffer ([…] Tris base pH 7.5, 20 mM MgCl2, 50 μM DTT, 0.1 mg/ml BSA) was added and pre-incubated 10 min before adding 2 μl of a mixture of MBP substrate and ATP (0.25 μg/μL MBP/25 μM ATP or 0.25 μg/μL MBP/2.5 mM ATP) in 1× kinase reaction buffer (as above). The plate was subsequently incubated at room temperature for 1 hour. Then 5 μl ADP-Glo™ reagent from ADP-Glo™ kit (as above) was added and incubated for 40 min to stop the reaction and consume remaining ATP. Ten μl kinase detection substrate (dissolved in kinase detection buffer, both from ADP-Glo™ kit as above) was then added to convert ADP to ATP and detect ATP with luciferase/luciferin. The plate was incubated for 30 minutes at room temperature in dark before reading luminescence on an Envision (PerkinElmer) reader.
IC50 values of compounds of the invention were determined by the non-linear regression analysis of dose response curves.
Background: ADP-Glo first removes unused ATP, then detects ADP through luciferase.
human recombinant TAK1-TAB1 Kinase (TAK1 (1-303) and TAB1 (437-end)), sequence (O43318 other isoform, or with tags, fused parts or gaps): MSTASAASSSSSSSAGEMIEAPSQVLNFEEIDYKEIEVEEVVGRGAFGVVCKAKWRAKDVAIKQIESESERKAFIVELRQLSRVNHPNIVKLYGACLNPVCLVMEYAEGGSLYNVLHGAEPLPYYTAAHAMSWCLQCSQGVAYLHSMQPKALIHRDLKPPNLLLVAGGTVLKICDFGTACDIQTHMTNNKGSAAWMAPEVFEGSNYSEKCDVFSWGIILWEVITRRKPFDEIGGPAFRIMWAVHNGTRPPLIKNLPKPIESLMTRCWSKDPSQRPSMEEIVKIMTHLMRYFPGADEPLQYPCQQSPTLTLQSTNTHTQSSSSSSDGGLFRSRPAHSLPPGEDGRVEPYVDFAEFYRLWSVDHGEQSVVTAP
`CC1CCCCNC(=O)c2cccc(c2)C(=O)/N=C2\Nc3cccc(C(=O)N4CC(F)(F)C4)c3N21` (centres unmarked) [Example 40, (E)-1^7-(3,3-difluoroazetidine-1-carbonyl)-11-methyl-1^2,1^3-dihydro-1^1H-2,6-diaza-1(2,1)-benzo[d]imidazola-4(1,3)-benzenacycloundecaphane-3,5-dione]: the IC50 was 3 nM.
With `CC1CCCCNC(=O)c2cccc(c2)C(=O)/N=C2\Nc3cccc(C(=O)N(C)C4CC(O)C4)c3N21` (centres unmarked) [Example 41, (E)-N-(3-hydroxycyclobutyl)-N,11-dimethyl-3,5-dioxo-1^2,1^3-dihydro-1^1H-2,6-diaza-1(2,1)-benzo[d]imidazola-4(1,3)-benzenacycloundecaphane-1^7-carboxamide], the IC50 worked out at 3 nM.
Still for that read-out and setting: under `CC1CCCCNC(=O)c2cccc(c2)C(=O)/N=C2\Nc3cccc(C(=O)N4CC5(COC5)C4)c3N21` (centres unmarked) [Example 42, (E)-11-methyl-1^7-(2-oxa-6-azaspiro[3.3]heptane-6-carbonyl)-1^2,1^3-dihydro-1^1H-2,6-diaza-1(2,1)-benzo[d]imidazola-4(1,3)-benzenacycloundecaphane-3,5-dione] stands 7 nM; under `CC1CCCNC(=O)c2cccc(c2)C(=O)Nc2nc3cccc(C(=O)N(C)C)c3n2C1` (centres unmarked) [Example 51, (E)-N,N,10-trimethyl-3,5-dioxo-1^2,1^3-dihydro-1^1H-2,6-diaza-1(2,1)-benzo[d]imidazola-4(1,3)-benzenacycloundecaphane-1^7-carboxamide], 136 nM.
Still for that read-out and setting: as for `CC1CCCNC(=O)c2cccc(c2)C(=O)Nc2nc3cccc(C(=O)N(C)C)c3n2C1` (centres unmarked) [Example 52, (E)-N,N,10-trimethyl-3,5-dioxo-1^2,1^3-dihydro-1^1H-2,6-diaza-1(2,1)-benzo[d]imidazola-4(1,3)-benzenacycloundecaphane-1^7-carboxamide], the figure is 63 nM; as for `C[C@@H]1CCCCNC(=O)c2cccc(c2)C(=O)Nc2nc3cccc(-c4ncn(C)n4)c3n21` [Example 83, (R)-11-methyl-1^7-(1-methyl-1H-1,2,4-triazol-3-yl)-1^1H-2,6-diaza-1(2,1)-benzo[d]imidazola-4(1,3)-benzenacycloundecaphane-3,5-dione], 6 nM; as for `C[C@@H]1CCCCNC(=O)c2cccc(c2)C(=O)Nc2nc3cccc(-c4ncnn4C)c3n21` [Example 85, (R,E)-11-methyl-1^7-(1-methyl-1H-1,2,4-triazol-5-yl)-1^1H-2,6-diaza-1(2,1)-benzo[d]imidazola-4(1,3)-benzenacycloundecaphane-3,5-dione], 3 nM.
Still for that read-out and setting: as for `CC1CCCCNC(=O)c2cccc(c2)C(=O)Nc2nc3cccc(-c4nccn4C(F)F)c3n21` (centres unmarked) [Example 90, (E)-1^7-(1-(difluoromethyl)-1H-imidazol-2-yl)-11-methyl-1^2,1^3-dihydro-1^1H-2,6-diaza-1(2,1)-benzo[d]imidazola-4(1,3)-benzenacycloundecaphane-3,5-dione], the figure is 6 nM; as for `C[C@@H]1CCCCNC(=O)c2cccc(c2)C(=O)/N=C2\Nc3cccc(C(=O)N4CC(C)(O)C4)c3N21` [Example 94, (R,E)-1^7-(3-hydroxy-3-methylazetidine-1-carbonyl)-11-methyl-1^2,1^3-dihydro-1^1H-2,6-diaza-1(2,1)-benzo[d]imidazola-4(1,3)-benzenacycloundecaphane-3,5-dione], 5 nM.
For the compound `C[C@H]1CCCCNC(=O)c2cccc(c2)C(=O)/N=C2\Nc3cccc(C(=O)N4CC(C)(O)C4)c3N21` [Example 95, (S,E)-1^7-(3-hydroxy-3-methylazetidine-1-carbonyl)-11-methyl-1^2,1^3-dihydro-1^1H-2,6-diaza-1(2,1)-benzo[d]imidazola-4(1,3)-benzenacycloundecaphane-3,5-dione], the half-inhibitory concentration (IC50) amounted to 6 nM.
Still for that read-out and setting: as for `Cc1nnc(-c2cccc3c2N2/C(=N/C(=O)c4cccc(c4)C(=O)NCCCC[C@@H]2C)N3)n1C` [Example 96, (S,E)-1^7-(4,5-dimethyl-4H-1,2,4-triazol-3-yl)-11-methyl-1^2,1^3-dihydro-1^1H-2,6-diaza-1(2,1)-benzo[d]imidazola-4(1,3)-benzenacycloundecaphane-3,5-dione], the figure is 11 nM; as for `CN1CCN(Cc2ccc3c(c2)N/C2=N\C(=O)c4ccc(F)c(c4)C(=O)NCCCCCN23)CC1` [Example 103, (E)-4^4-fluoro-1^5-((4-methylpiperazin-1-yl)methyl)-1^2,1^3-dihydro-1^1H-2,6-diaza-1(2,1)-benzo[d]imidazola-4(1,3)-benzenacycloundecaphane-3,5-dione], 3 nM.
Still for that read-out and setting: as for `CN1CCN(Cc2ccc3c(c2)N/C2=N\C(=O)c4csc(c4)C(=O)NCCCCCN23)CC1` [Example 104, (1^2E,4^2Z)-1^5-((4-methylpiperazin-1-yl)methyl)-1^2,1^3-dihydro-1^1H-2,6-diaza-1(2,1)-benzo[d]imidazola-4(4,2)-thiophenacycloundecaphane-3,5-dione], the figure is 4 nM; as for `CN1CCN(Cc2ccc3c(c2)N/C2=N\C(=O)c4cc(ccc4F)C(=O)NCCCCCN23)CC1` [Example 105, (E)-4^6-fluoro-1^5-((4-methylpiperazin-1-yl)methyl)-1^2,1^3-dihydro-1^1H-2,6-diaza-1(2,1)-benzo[d]imidazola-4(1,3)-benzenacycloundecaphane-3,5-dione], 6 nM; as for `C[C@H]1CCCCNC(=O)c2cccc(c2)C(=O)NC2Nc3cccc(N4CCCC4=O)c3N21` (stereo partly drawn) [Example 113, (S,E)-11-methyl-1^7-(2-oxopyrrolidin-1-yl)-1^2,1^3-dihydro-1^1H-2,6-diaza-1(2,1)-benzo[d]imidazola-4(1,3)-benzenacycloundecaphane-3,5-dione], 5 nM.

The assay is the same for the next values; noted with them: 1 mM ATP, MBP substrate; read-out: TAK1 Mean IC50 (nM) @ 1 mM ATP.
On to `Cc1nnc(-c2cccc3c2N2/C(=N/C(=O)c4cccc(c4)C(=O)NCCCC[C@@H]2C)N3)n1C` [Example 96, (S,E)-1^7-(4,5-dimethyl-4H-1,2,4-triazol-3-yl)-11-methyl-1^2,1^3-dihydro-1^1H-2,6-diaza-1(2,1)-benzo[d]imidazola-4(1,3)-benzenacycloundecaphane-3,5-dione], for which the IC50 amounted to 7 nM.
Still for that read-out and setting: under `C[C@H]1CCCCNC(=O)c2cccc(c2)C(=O)/N=C2\Nc3cccc(C(=O)N4CC[C@@](C)(O)C4)c3N21` [Example 106, (S,E)-1^7-((R)-3-hydroxy-3-methylpyrrolidine-1-carbonyl)-11-methyl-1^2,1^3-dihydro-1^1H-2,6-diaza-1(2,1)-benzo[d]imidazola-4(1,3)-benzenacycloundecaphane-3,5-dione] stands 6 nM; under `C[C@H]1CCCCNC(=O)c2cccc(c2)C(=O)/N=C2\Nc3cccc(C(=O)N4CC(OC5CC5)C4)c3N21` [Example 107, (S,E)-1^7-(3-cyclopropoxyazetidine-1-carbonyl)-11-methyl-1^2,1^3-dihydro-1^1H-2,6-diaza-1(2,1)-benzo[d]imidazola-4(1,3)-benzenacycloundecaphane-3,5-dione], 4 nM.
Same read-out and setting: as for `C[C@H]1CCCCNC(=O)c2cccc(c2)C(=O)/N=C2\Nc3cccc(C(=O)N4CC(OC(F)(F)F)C4)c3N21` [Example 110, (S,E)-11-methyl-1^7-(3-(trifluoromethoxy)azetidine-1-carbonyl)-1^2,1^3-dihydro-1^1H-2,6-diaza-1(2,1)-benzo[d]imidazola-4(1,3)-benzenacycloundecaphane-3,5-dione], the figure is 26 nM.
The same measure, in the same setting: as for `C[C@H]1CCCCNC(=O)c2cccc(c2)C(=O)/N=C2\Nc3cccc(C(=O)N4C[C@@H]5C[C@H]4CO5)c3N21` [Example 111, (S,E)-1^7-((1S,4S)-2-oxa-5-azabicyclo[2.2.1]heptane-5-carbonyl)-11-methyl-1^2,1^3-dihydro-1^1H-2,6-diaza-1(2,1)-benzo[d]imidazola-4(1,3)-benzenacycloundecaphane-3,5-dione], the figure is 24 nM; as for `C[C@H]1CCCCNC(=O)c2cccc(c2)C(=O)/N=C2\Nc3cccc(C(=O)N4C[C@H]5C[C@@H]4CO5)c3N21` [Example 112, (S,E)-1^7-((1R,4R)-2-oxa-5-azabicyclo[2.2.1]heptane-5-carbonyl)-11-methyl-1^2,1^3-dihydro-1^1H-2,6-diaza-1(2,1)-benzo[d]imidazola-4(1,3)-benzenacycloundecaphane-3,5-dione], 8 nM; as for `C[C@H]1CCCCNC(=O)c2cccc(c2)C(=O)NC2Nc3cccc(N4CCCC4=O)c3N21` (stereo partly drawn) [Example 113, (S,E)-11-methyl-1^7-(2-oxopyrrolidin-1-yl)-1^2,1^3-dihydro-1^1H-2,6-diaza-1(2,1)-benzo[d]imidazola-4(1,3)-benzenacycloundecaphane-3,5-dione], 5 nM.
As to `C[C@H]1CCCCNC(=O)c2cccc(c2)C(=O)/N=C2\Nc3cccc(C(=O)N4CC5(COC5)C4)c3N21` [Example 114, (S,E)-11-methyl-1^7-(2-oxa-6-azaspiro[3.3]heptane-6-carbonyl)-1^2,1^3-dihydro-1^1H-2,6-diaza-1(2,1)-benzo[d]imidazola-4(1,3)-benzenacycloundecaphane-3,5-dione], the 50% inhibitory concentration (IC50) is 10 nM.

In general, IC50 refers to the midpoint of a concentration-inhibition curve.

The values above are taken from US20240279233A1, “MACROCYCLIC TAK1 INHIBITORS” (Aqilion AB, priority 2021, published 2024).
